In US20160271157A1, “BETA-CATENIN” (UCL BUSINESS PLC, priority 2013, published 2016):

How the values were obtained:
[1] = system: Wnt induced calcium release; assay: Wnt induced [Ca2+]i release after preincubation with thapsigargin or membrane potential regulating compounds; assay type: cell-based; settings: PC3 cells, thapsigargin 5 μM for 15 min; Wnt5A 100 ng/ml, Wnt9B 200 ng/ml, Wnt10B 200 ng/ml
Experimental: The imaging protocol was developed in the inventor's laboratory and has been described in detail, elsewhere (Wang at al., (2010) PLoS ONE 5, e10456). Briefly, 100000-200000 PC3, MCF7, 253J or Cos 7 cells were plated on 35 mm FluoroDish (WPI) and grown for 48 h; calcium indicators Fluo-4 (Invitrogen) and FuraRed (Invitrogen) at 1 ng/ml were added to FluoroDish containing only 1 ml of culture medium and incubated for 15-20 min at 37° C. The culture medium was removed and washed (×2) and replaced with 1 ml PBS. Live cell calcium Imaging was performed on an Olympus FluoView FV 1000 confocal microscope (Olympus KeyMed) equipped with a 20× dry objective (numerical aperture=0.75). Calcium indicators were excited with an argon laser line (488 nm) and emissions recorded in the green channel (500-560 nm) for Fluo-4 and red channel (600-700 nm) for FuraRed after addition of vehicle control (PBS) or Wnt X (30-600 ng/ml). Images were acquired every 1.1 or 2.2 seconds for up to 600-800s; image and data acquisition was performed using FluoView 1000 software (Olympus, UK). Fluorescent intensity was measured and data exported as a tab delimited file for further analysis using a spreadsheet. All imaging experiments were performed in duplicate; intracellular calcium at 100 ng/ml was measured in at least 3-12 different passages (passage numbers 25 to 37) of cell line for each Wnt ligand. Wnt 11 was tested in at least 5 different passages at 3 different concentrations. […]
To measure the effect of changes in membrane potential on [Ca^2+]i release using the protocol described above, in some experiments, external solution (PBS) was substituted with varying concentrations of KCl. In other experiments chemical inhibitors of K^+ channels such as TEA, CsCl or tolbutamide (Sigma-Aldrich) were added to the cells grown on FluoroDish, at 37° C., at least 5 min prior to addition of Wnt ligands.
After image acquisition, regions of interest (ROI) were drawn over individual PC3 cells (up to 25) in a single frame and calcium intensity measurements were made using FluoView 1000 software (Olympus, UK). The measurements were exported as a tab delimited file into a spreadsheet for further analysis and Fluo4/Fura Red ratios were calculated. The waveform, a product of the ratio of Fluo4 and FuraRed over the period of measurement was used to measure the kinetics of the activation of [Ca^2+]i release in PC3 cells, in response to different Wnt ligands. The time constants (rise, dwell and fall times) were calculated by first fitting the Fluo4/FuraRed ratio to a single Gaussian function (Origin Lab Corp., MA); a lower (10%) and upper (90%) amplitude thresholding method was then used to calculate the time constants (s). Statistical significance was calculated using Mann Whitney U test.

[2] = system: Cos7 simian kidney cell line; assay: Live [Ca2+]i imaging after addition of Wnt ligand, Cos7; assay type: cell-based; settings: Cos7 cells
Experimental: The imaging protocol was developed in the inventor's laboratory and has been described in detail, elsewhere (Wang at al., (2010) PLoS ONE 5, e10456). Briefly, 100000-200000 PC3, MCF7, 253J or Cos 7 cells were plated on 35 mm FluoroDish (WPI) and grown for 48 h; calcium indicators Fluo-4 (Invitrogen) and FuraRed (Invitrogen) at 1 ng/ml were added to FluoroDish containing only 1 ml of culture medium and incubated for 15-20 min at 37° C. The culture medium was removed and washed (×2) and replaced with 1 ml PBS. Live cell calcium Imaging was performed on an Olympus FluoView FV 1000 confocal microscope (Olympus […]) equipped with a 20× dry objective (numerical aperture=0.75). Calcium indicators were excited with an argon laser line (488 nm) and emissions recorded in the green channel (500-560 nm) for Fluo-4 and red channel (600-700 nm) for FuraRed after addition of vehicle control (PBS) or Wnt X (30-600 ng/ml). […] Fluorescent intensity was measured and data exported as a tab delimited file for further analysis using a spreadsheet. All imaging experiments were performed in duplicate; intracellular calcium at 100 ng/ml was measured in at least 3-12 different passages (passage numbers 25 to 37) of cell line for each Wnt ligand. […] The measurements were exported as a tab delimited file into a spreadsheet for further analysis and Fluo4/Fura Red ratios were calculated. […]

| Molecule | increase in [Ca2+]i in response to Wnt ligands (5A, 9B and 10B) after thapsigargin [1] | [Ca2+]i activation in response to Wnt ligand [2] |
| --- | --- | --- |
| C/C=C(/C)C(=O)O[C@H]1C(C)=C2[C@H]([C@@H]1OC(=O)CCCCCCC)[C@@](C)(OC(C)=O)C[C@H](OC(=O)CCC)[C@@]1(O)[C@H]2OC(=O)[C@@]1(C)O [thapsigargin, reference compound] | abolished |  |
| Wnt5A: Recombinant Wnt peptide purchased from R&D systems (protein, UniProt P41221 62-380, looked up) Protein Wnt-5a: IIGAQPLCSQLAGLSQGQKKLCHLYQDHMQYIGEGAKTGIKECQYQFRHRRWNCSTVDNTSVFGRVMQIGSRETAFTYAVSAAGVVNAMSRACREGELSTCGCSRAARPKDLPRDWLWGGCGDNIDYGYRFAKEFVDARERERIHAKGSYESARILMNLHNNEAGRRTVYNLADVACKCHGVSGSCSLKTCWLQLADFRKVGDALKEKYDSAAAMRLNSRGKLVQVNSRFNSPTTQDLVYIDPSPDYCVRNESTGSLGTQGRLCNKTSEGMDGCELMCCGRGYDQFKTVQTERCHCKFHWCCYVKCKKCTEIVDQFVCK |  | activated [Ca^2+]i |
